# Laboratory results published in article PMC5503534, “Stable aneuploid tumors cells are more sensitive to TTK inhibition than chromosomally unstable cell lines” (Oncotarget, 2017).
# Where “and” joins values, the source holds several entries; their conditions need not be identical. Identical values can stand only once. Like-named read-outs stand apart in the source and are kept apart here.
# Tests used:
# [1] = molecular target: T1, full-length Aurora B (Homo sapiens, UniProt Q96GD4); assay: Surface plasmon resonance binding kinetics, Aurora B; conditions: SPR
# T1 construct: to the kinase domain of TTK and full-length Aurora B; purchased Carna Biosciences, Inc., Kobe, Japan; host or cells: Sf9 insect cells
# T1 sequence (Q96GD4 whole entry, the tested form may be a part): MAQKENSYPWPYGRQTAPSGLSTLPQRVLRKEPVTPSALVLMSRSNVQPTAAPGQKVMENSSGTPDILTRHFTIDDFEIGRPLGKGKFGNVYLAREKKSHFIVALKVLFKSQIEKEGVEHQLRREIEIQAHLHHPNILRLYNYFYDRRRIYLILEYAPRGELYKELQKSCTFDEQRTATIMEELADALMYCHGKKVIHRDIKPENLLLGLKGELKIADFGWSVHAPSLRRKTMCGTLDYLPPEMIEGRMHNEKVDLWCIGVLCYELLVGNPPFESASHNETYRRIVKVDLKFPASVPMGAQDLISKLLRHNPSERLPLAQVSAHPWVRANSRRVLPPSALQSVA
# Excerpt: Originally, the compound was identified in a phenotypic screen for molecules that can induce stem-cell like phenotypes. Later this property was attributed to its ability to inhibit the mitotic kinase Aurora B [39].
# [2] = test system: HCT 116 colon carcinoma cell line; assay: Cell proliferation assay (ATPlite), HCT 116; format: cell-based, human
# Method: (§1) Cell proliferation assays were carried out as described using ATPlite 1step™ (Perkin Elmer, Groningen, The Netherlands). Exposure time was 72 or 120 hours as indicated in the Legends to the Figures. Percentage growth was calculated, relative to the growth of unexposed cells, and relative IC50s were fitted using a four-parameter logistics curve (XLfit 5.3, IDBS). For Figure 4A and 7 dose response curves were redrawn in Prism. To compare the inhibitory potency of compounds in proliferation assays with HCT 116 parental and tetraploid clones, pIC50 (−^10logIC50) values were compared in three independent experiments. A two-tailed Student's t-test was performed to determine whether differences in sensitivity (ΔpIC50) were statistically significant. Caspase 3/7 activity of cancer cells was measured using Caspase-Glo 3/7 Assay kit (cat no. G8093, Promega, Madison USA). Viability of T-ALL cell samples was determined using ATPlite and exposure of 72 hours as described previously.
# [3] = test system: MG-63 osteosarcoma cell line; assay: Cell proliferation assay (ATPlite), MG-63; format: cell-based, human; conditions: 5 day proliferation assay
# Method: as §1
# [4] = test system: OVCAR-3 ovary adenocarcinoma cell line; assay: Cell proliferation assay (ATPlite), OVCAR-3; format: cell-based, human; conditions: 5 day proliferation assay
# Method: as §1
# [5] = test system: post-tetraploid HPT1 cells; assay: Cell proliferation assay, post-tetraploid HPT1; format: cell-based, human; conditions: HPT1, five days
# Method: (§2) Cancer cell lines and hTERT-RPE1 retinal pigment epithelial cells were purchased from the American Type Culture Collection (ATCC) (Manassas, VA, U.S.A.) from 2011 to 2014 [41] and cultured in ATCC-recommended media. All experiments were carried out within nine passages of the original vials from ATCC who authenticated the cancer cell lines by short tandem repeat analysis. We verified the mutant status of seven frequently mutated cancer genes (i.e., BRAF, CDKN2A, CTNNB1, EGFR, KRAS, PIK3CA and TP53) by full exome or targeted sequencing. Sequencing results were compared to COSMIC version 75 of the Genomics of Drug Sensitivity in Cancer data base and provided additional authentication of the identity of the cell lines. The isolation and characterization of post-tetraploid clones from HCT 116 has been described previously. The mutation status of the CDKN2A, CTNNB1, KRAS and PIK3CA genes were confirmed by sequence analysis in both the HCT 116 parental cell line and post-tetraploid clones. All experiments were carried out within nine passages of the original cell stocks that were transferred from the Max Planck Institute of Biochemistry (Martinsried, Germany) to Netherlands Translational Research Center.
# as §1
# [6] = test system: post-tetraploid HPT4 cells; assay: Cell proliferation assay, post-tetraploid HPT4; format: cell-based, human; conditions: HPT4, five days
# Method: as §2, §1
# [7] = test system: HCT 116 vs HPT1, -2 and -4; assay: Drug sensitivity analysis, HCT116 diploid versus tetraploids; format: cell-based, human
# Method: as §1
# [8] = test system: HCT 116, LoVo, A-172, DoTc2 4510, MG-63, OVCAR-3 cell lines; assay: Time-lapse microscopy, sensitive and resistant cell lines; format: cell-based, human; conditions: 100 nM
# Method: The activity of the mitotic checkpoint was measured by the time between the breakdown of the nuclear envelop and the onset of anaphase (Figure 2A). Under the vehicle-treated control conditions, all sensitive cells were able to accomplish a normal mitosis in approximately 35 minutes (HCT 116, 30 min; LoVo, 41 min; A172, 36 min; Figure 2A and Supplementary Figure 1). In contrast, the three resistant cell lines spent more time in mitosis, i.e., almost one hour (MG-63, 53 min), or up to 2 and 3 hours (DoTc2 4510, 122 min; OVCAR-3, 173 min).
# (§3) HCT 116 diploid and tetraploids stably expressed green fluorescent protein-tagged histone 2B (H2B-GFP). All other cell lines were pre-incubated with SiR-DNA (Spirochrome, Switzerland) in order to visualize DNA. Cells were cultured in Leibovitz L15 CO2-independent cell culture medium in 6-well glass bottom chamber (LabTek Corp., Australia) and synchronized by treatment with 2 mM thymidine. After 24 hours of synchronization, and 4 hours before the start of the imaging experiment, medium was replaced by medium without thymidine. […] Image Z-stacks were acquired with 3-μm intervals using a sCMOS camera (DeltaVision RT; Applied Precision, GE Healthcare, Issaquah, WA) and processed using ImageJ software (NIH, Bethesda, MD, USA). Chromosome mis-segregation phenotypes co-occurred and many combinations existed. For clarity, all the events were scored and included: more than two phenotypes, mitotic slippage, DNA bridge, micro-nuclei and multipolar spindle.
# [9] = test system: HCT 116, HPT1, HPT2 and HPT4 cells; assay: Time-lapse microscopy, HCT 116 and post-tetraploid clones; format: cell-based, human; conditions: 100 nM, post-tetraploid clones and parental cell line
# Method: as §3
# [10] = test system: HCT 116 parental cells or tetraploids; assay: Colony formation assay; format: cell-based, human; conditions: pre-treated 4 days with 100 nM, reseeded
# Method: After 4 days, the cells were washed with phosphate-buffered saline (PBS) and allowed to recover for 24 hours. The remaining cells were collected and plated at a density of 1000 cells per well in a 96-well plate. After ten days, cells were fixed with 96% methanol for 20 minutes, washed with PBS and stained with 0.1% (w/v) crystal violet over-night. Plates were washed in tap water and allowed to dry before scanning and analysis with ImageJ software (NIH, Bethesda, MD, USA).
# [11] = test system: HCT 116 colon carcinoma cell line; conditions: three day cell proliferation assay; cited from earlier work
# [12] = test system: LoVo colorectal adenocarcinoma cell line; conditions: three day cell proliferation assay; cited from earlier work
# [13] = test system: A-172 glioblastoma cell line; conditions: three day cell proliferation assay; cited from earlier work
# [14] = test system: MG-63 osteosarcoma cell line; conditions: three day cell proliferation assay; cited from earlier work
# [15] = test system: OVCAR-3 ovary adenocarcinoma cell line; conditions: three day cell proliferation assay; cited from earlier work
# [16] = toxicity studies in mice; cited from earlier work
# [17] = geometric average of three experiments
structure (smiles),measurement,setting,value
CCc1cccc(CC)c1NC(=O)c1ccn2c1CCc1cnc(Nc3ccc(N4CCN(C)CC4)cc3OC)nc1-2 [NTRC 0066-0],Kd,[1]; KD = kd/ka,907 nM
same,ka,[1]; geometric average,13400 M⁻¹ s⁻¹
same,kd,[1]; geometric average,0.0122 s⁻¹
same,IC50,"[2]; 5 day proliferation assay, HCT 116 (Suppl. Table 1)",41 nM
same,Eff. (%),"[2]; HCT 116, five days, maximum inhibitory effect, average of three experiments",80%
same,IC50,"[2]; HCT 116 near-diploid, five days, geometric average of three experiments (Suppl. Table 2A)",44 nM
same,IC50,[3],260 nM
same,IC50,[4],268 nM
same,Efficacy (%),[5]; average of three experiments,59%
same,IC50,[5]; [17],40 nM
same,Efficacy (%),[6]; average of three experiments,48%
same,IC50,[6]; [17],44 nM
same,Δeff. (%),"[7]; HCT 116 vs HPT1, -2 and -4",−33%
same,Phenotype (efficacy),"[7]; HCT 116 vs HPT1, -2 and -4, based on % effect",resistant
same,Phenotype (potency),"[7]; HCT 116 vs HPT1, -2 and -4, 'resistant' indicates that tetraploids are resistant",sensitive
same,ΔpIC50,[7]; average log shift in sensitivity between parental and tetraploids,−0.01
same,time-in-mitosis,"[8]; all cell lines, nuclear envelope breakdown to anaphase onset",approximately 20 min
same,defective anaphases,[8]; resistant cell lines,63–71%
same,defective anaphases,[8]; sensitive cell lines,at least 60%
same,time-in-mitosis,[9],20 min
same,proliferation after compound wash-out (colony formation),[10],unable to fully resume proliferation
same,IC50,[11],37 nM
same,IC50,[12],40 nM
same,IC50,[13],51 nM
same,IC50,[14],135 nM
same,IC50,[15],897 nM and 872 nM
same,effect on bone marrow or blood cell count (hematological toxicity),[16],no effect on bone marrow or blood cell count
